Laboratory results from US9708334B2, “Substituted 2,4,5,6-tetrahydropyrrolo[3,4-c]pyrazole and 4,5,6,7-tetrahydro-2H-pyrazolo[4,3-c]pyridine compounds as GlyT1 inhibitors” (DART NEUROSCIENCE (CAYMAN) LTD., priority 2014, dated 2017).

biological target: T1, GlyT1 (Homo sapiens, UniProt P48067); experiment: Glycine Transporter 1 (GlyT1) uptake assay, scintillation proximity assay of [14C]-glycine uptake; type: cell-based; details: SPA, four parameter logistic fit, read-out: GlyT1 (pIC50) (converted)
T1 construct: expressed in transfected cells
T1 sequence (P48067 1-706): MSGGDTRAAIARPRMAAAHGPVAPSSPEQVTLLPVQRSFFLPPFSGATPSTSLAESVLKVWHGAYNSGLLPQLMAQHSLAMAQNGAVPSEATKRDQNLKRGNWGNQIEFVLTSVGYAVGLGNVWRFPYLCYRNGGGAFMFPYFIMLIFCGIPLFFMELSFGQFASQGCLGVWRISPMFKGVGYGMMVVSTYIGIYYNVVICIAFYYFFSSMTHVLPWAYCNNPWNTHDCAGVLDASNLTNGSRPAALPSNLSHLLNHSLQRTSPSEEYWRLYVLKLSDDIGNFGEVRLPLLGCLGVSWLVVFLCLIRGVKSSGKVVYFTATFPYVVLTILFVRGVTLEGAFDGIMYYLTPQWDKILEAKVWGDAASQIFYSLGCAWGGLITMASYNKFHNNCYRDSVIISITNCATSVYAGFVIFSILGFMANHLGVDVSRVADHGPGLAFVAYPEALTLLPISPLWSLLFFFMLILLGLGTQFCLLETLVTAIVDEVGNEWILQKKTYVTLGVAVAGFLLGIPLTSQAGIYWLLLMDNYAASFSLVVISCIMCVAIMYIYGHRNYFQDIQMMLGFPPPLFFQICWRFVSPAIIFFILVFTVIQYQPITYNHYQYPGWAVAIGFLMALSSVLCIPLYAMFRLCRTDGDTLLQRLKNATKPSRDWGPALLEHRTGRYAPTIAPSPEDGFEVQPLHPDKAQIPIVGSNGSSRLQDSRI
Outline: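 IC50 values derive from four-parameter logistic curves fitted to dose-response data. Uptake of [14C]-glycine measured in scintillation proximity format.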

Compared with `C[C@H](Oc1ccc(C#N)c(Cl)c1C(=O)N1Cc2cn(-c3cccnc3)nc2C1)C(F)(F)F` [Example 247], `Cc1cccnc1-n1cc2c(n1)CN(C(=O)c1c(O[C@@H](C)C(F)(F)F)ccc(C#N)c1Cl)C2` [Example 271, 2-Chloro-3-[2-(3-methylpyridin-2-yl)-2H 4H 5H 6H-pyrrolo[3,4-c]pyrazole-5-carbonyl]-4-{[(2S)-1 1 1-trifluoropropan-2-yl]oxy}benzonitrile] is higher in IC50: under 100 nM for the first, 100 to 1000 nM for the second.

`Cc1c(F)ccc(-n2cc3c(n2)CN(C(=O)c2cc(S(C)(=O)=O)ccc2O[C@@H](C)C(F)(F)F)C3)c1F` [Example 58, 2-(2 4-Difluoro-3-methylphenyl)-5-(5-methanesulfonyl-2-{[(2S)-1 1 1-trifluoropropan-2-yl]oxy}benzoyl)-2H 4H 5H 6H-pyrrolo[3,4-c]pyrazole] and `Cc1ccc(F)c(-n2cc3c(n2)CN(C(=O)c2cc(S(C)(=O)=O)ccc2O[C@@H](C)C(F)(F)F)C3)c1` [Example 122, 2-(2-Fluoro-5-methylphenyl)-5-(5-methanesulfonyl-2-{[(2S)-1 1 1-trifluoropropan-2-yl]oxy}benzoyl)-2H 4H 5H 6H-pyrrolo[3,4-c]pyrazole] cannot be ordered by IC50: under 100 nM for the first, under 100 nM for the second.

`COc1c(C#N)ccc(O[C@@H](C)C(F)(F)F)c1C(=O)N1Cc2cnn(-c3ccnc(C)c3)c2C1` [Example 309] and `COc1c(C#N)ccc(OC(C)C(F)(F)F)c1C(=O)N1Cc2cnn(-c3ccc(F)cn3)c2C1` (centres unmarked) [Example 236, 3-[1-(5-Fluoropyridin-2-yl)-1H 4H 5H 6H-pyrrolo[3,4-c]pyrazole-5-carbonyl]-2-methoxy-4-[(1 1 1-trifluoropropan-2-yl)oxy]benzonitrile] cannot be ordered by IC50: under 100 nM for the first, under 100 nM for the second.

First: CC(Oc1ccc(C(=O)O)c(Cl)c1C(=O)N1Cc2cn(-c3ccc(F)cc3)nc2C1)C(F)(F)F (centres unmarked) [Example 5, 2-Chloro-3-(2-(4-fluorophenyl)-2,4,5,6-tetrahydropyrrolo[3,4-c]pyrazole-5-carbonyl)-4-((1,1,1-trifluoropropan-2-yl)oxy)benzoic acid]
Second: CC(Oc1ccc(C#N)c(Cl)c1C(=O)N1CCc2nn(-c3ccccc3)cc2C1)C(F)(F)F (centres unmarked) [Example 193, 2-Chloro-3-{2-phenyl-2H 4H 5H 6H 7H-pyrazolo[4,3-c]pyridine-5-carbonyl}-4-[(1 1 1-trifluoropropan-2-yl)oxy]benzonitrile]
The IC50 of the first is higher: over 10000 nM for the first, 100 to 1000 nM for the second.

`COc1c(C#N)ccc(O[C@@H](C)C(F)(F)F)c1C(=O)N1Cc2cn(-c3ccc(F)c(C)n3)nc2C1` [Example 296, 3-[2-(5-Fluoro-6-methylpyridin-2-yl)-2H 4H 5H 6H-pyrrolo[3,4-c]pyrazole-5-carbonyl]-2-methoxy-4-{[(2 S)-1 1 1-trifluoropropan-2-yl]oxy}benzonitrile] and `COc1c(C#N)ccc(O[C@@H](C)C(F)(F)F)c1C(=O)N1Cc2cn(-c3ncccc3F)nc2C1` [Example 261] cannot be ordered by IC50: under 100 nM for the first, under 100 nM for the second.

Compared with `CC(C)Oc1ccc(C#N)cc1C(=O)N1Cc2cn(CC3CCOC3)nc2C1` (centres unmarked) [Example 420, 3-[2-(Oxolan-3-ylmethyl)-2H 4H 5H 6H-pyrrolo[3,4-c]pyrazole-5-carbonyl]-4-(propan-2-yloxy)benzonitrile], `CCc1cc(-n2cc3c(n2)CN(C(=O)c2cc(C#N)ccc2OC(C)C)C3)ccn1` [Example 368, 3-[2-(2-Ethylpyridin-4-yl)-2H 4H 5H 6H-pyrrolo[3,4-c]pyrazole-5-carbonyl]-4-(propan-2-yloxy)benzonitrile] is lower in IC50: 100 to 1000 nM for the first, under 100 nM for the second.

Compared with `CC(C)n1ncc2c1CN(C(=O)c1cc(C#N)ccc1O[C@@H](C)C(F)(F)F)C2` [Example 384, 3-[1-(Propan-2-yl)-1H 4H 5H 6H-pyrrolo[3,4-e]pyrazole-5-carbonyl]-4-{[(2S)-1 1 1-trifluoropropan-2-yl]oxy}benzonitrile], `C[C@H](Oc1ccc(C#N)cc1C(=O)N1Cc2cn(-c3ccnc(C4CCC4)c3)nc2C1)C(F)(F)F` [Example 460, 3-[2-(2-Cyclobutylpyridin-4-yl)-2H 4H 5H 6H-pyrrolo[3,4-c]pyrazole-5-carbonyl]-4-{[(2S)-1 1 1-trifluoropropan-2-yl]oxy}benzonitrile] is lower in IC50: 1000 to 10000 nM for the first, under 100 nM for the second.

`CC(C)Oc1ccc(S(C)(=O)=O)cc1C(=O)N1Cc2cn(C3CCCCC3)nc2C1` [Example 403, 2-Cyclohexyl-5-[5-methanesulfonyl-2-(propan-2-yloxy)benzoyl]-2H 4H 5H 6H-pyrrolo[3,4-c]pyrazole] and `CS(=O)(=O)c1ccc(-c2cccc(F)c2)c(C(=O)N2Cc3cn(C4CCC(F)(F)CC4)nc3C2)c1` [Example 469, 2-(4 4-Difluorocyclohexyl)-5-[2-(3-fluorophenyl)-5-methanesulfonylbenzoyl]-2H 4H 5H 6H-pyrrolo[3,4-c]pyrazole] cannot be ordered by IC50: under 100 nM for the first, under 100 nM for the second.

Compared with `CS(=O)(=O)c1ccc(OCC2CC2)c(C(=O)N2CCc3c(cnn3-c3cccc(C(F)(F)F)c3)C2)c1` [Example 160, 5-[2-(Cyclopropylmethoxy)-5-methanesulfonylbenzoyl]-1-[3-(trifluoromethyl)phenyl]-1H 4H 5H 6H 7H-pyrazolo[4,3-c]pyridine], `Cc1ccnc(-n2cc3c(n2)CN(C(=O)c2cc(S(C)(=O)=O)ccc2O[C@@H](C)C(F)(F)F)C3)c1` [Example 357, 2-[5-(5-Methanesulfonyl-2-{[(2S)-1 1 1-trifluoropropan-2-yl]oxy}benzoyl)-2H 4H 5H 6H-pyrrolo[3,4-c]pyrazol-2-yl]-4-methylpyridine] is lower in IC50: 1000 to 10000 nM for the first, under 100 nM for the second.

Going from `CC(C)(Oc1ccc(S(C)(=O)=O)cc1C(=O)N1Cc2cn(-c3ccc(F)cc3)nc2C1)C(F)(F)F` [Example 477, 2-(4-Fluorophenyl)-5-{5-methanesulfonyl-2-[(1 1 1-trifluoro-2-methylpropan-2-yl)oxy]benzoyl}-2H 4H 5H 6H-pyrrolo[3,4-c]pyrazole] to `CCS(=O)(=O)c1ccc(O[C@@H](C)C(F)(F)F)c(C(=O)N2Cc3cn(-c4cc(C)ccc4F)nc3C2)c1` [Example 126, 5-[5-(Ethanesulfonyl)-2-{[(2S)-1 1 1-trifluoropropan-2-yl]oxy}benzoyl]-2-(2-fluoro-5-methylphenyl)-2H 4H 5H 6H-pyrrolo[3,4-c]pyrazole], the IC50 falls from over 10000 nM to under 100 nM.

First: Cc1cccc(-n2cc3c(n2)CN(C(=O)c2cc(S(=O)(=O)C(C)C)ccc2OC(C)C)C3)c1 [Example 96, 2-(3-Methylphenyl)-5-[2-(propan-2-yloxy)-5-(propane-2-sulfonyl)benzoyl]-2H 4H 5H 6H-pyrrolo[3,4-c]pyrazole]
Second: COc1c(C#N)ccc(OC(C)C)c1C(=O)N1Cc2cn(-c3ccnc(C)c3)nc2C1 [Example 328, 2-Methoxy-3-[2-(2-methylpyridin-4-yl)-2H 4H 5H 6H-pyrrolo[3,4-c]pyrazole-5-carbonyl]-4-(propan-2-yloxy)benzonitrile]
The IC50 of the first is higher: 1000 to 10000 nM for the first, under 100 nM for the second.

First: COc1cccc(-n2cc3c(n2)CCN(C(=O)c2c(OC(C)C(F)(F)F)ccc(C#N)c2Cl)C3)c1 (centres unmarked) [Example 205, 2-Chloro-3-[2-(3-methoxyphenyl)-2H 4H 5H 6H 7H-pyrazolo[4,3-c]pyridine-5-carbonyl]-4-[(1 1 1-trifluoropropan-2-yl)oxy]benzonitrile]
Second: Cc1ccnc(-n2cc3c(n2)CN(C(=O)c2c(O[C@@H](C)C(F)(F)F)ccc(C#N)c2Cl)C3)c1 [Example 273, 2-Chloro-3-[2-(4-methylpyridin-2-yl)-2H 4H 5H 6H-pyrrolo[3,4-c]pyrazole-5-carbonyl]-4-{[(2S)-1 1 1-trifluoropropan-2-yl]oxy}benzonitrile]
The IC50 of the first is higher: 100 to 1000 nM for the first, under 100 nM for the second.

Compared with `CC(Oc1ccc(C#N)c(Cl)c1C(=O)N1CCc2c(c(C(F)(F)F)nn2C)C1)C(F)(F)F` (centres unmarked) [Example 182, 2-Chloro-3-[1-methyl-3-(trifluoromethyl)-1H 4H 5H 6H 7H-pyrazolo[4,3-c]pyridine-5-carbonyl]-4-[(1 1 1-trifluoropropan-2-yl)oxy]benzonitrile], `COc1c(C#N)ccc(OC(C)C(F)(F)F)c1C(=O)N1CCc2c(cnn2-c2cccnc2)C1` (centres unmarked) [Example 218, 2-Methoxy-3-[1-(pyridin-3-yl)-1H 4H 5H 6H 7H-pyrazolo[4,3-c]pyridine-5-carbonyl]-4-[(1 1 1-trifluoropropan-2-yl)oxy]benzonitrile] is lower in IC50: 1000 to 10000 nM for the first, under 100 nM for the second.

`COc1c(C#N)ccc(OC(C)C(F)F)c1C(=O)N1Cc2cn(-c3ccc(F)cc3)nc2C1` (centres unmarked) [Example 11, 4-[(1 1-Difluoropropan-2-yl)oxy]-3-[2-(4-fluorophenyl)-2H 4H 5H 6H-pyrrolo[3,4-c]pyrazole-5-carbonyl]-2-methoxybenzonitrile] and `CS(=O)(=O)c1ccc(N2CCC(F)(F)CC2)c(C(=O)N2Cc3cn(-c4cc(F)ccc4F)nc3C2)c1` [Example 123, 1-{2-[2-(2 5-Difluorophenyl)-2H 4H 5H 6H-pyrrolo[3,4-c]pyrazole-5-carbonyl]-4-methanesulfonylphenyl}-4 4-difluoropiperidine] cannot be ordered by IC50: under 100 nM for the first, under 100 nM for the second.

In the case of `CS(=O)(=O)c1ccc(N2CCCCC2)c(C(=O)N2Cc3cn(-c4ccc(F)cn4)nc3C2)c1` [Example 115, 5-Fluoro-2-{5-[5-methanesulfonyl-2-(piperidin-1-yl)benzoyl]-2H 4H 5H 6H-pyrrolo[3,4-c]pyrazol-2-yl}pyridine], the IC50 is reported as under 100 nM.
